Paper PMC7753147, “High-throughput determination of protein affinities using unmodified peptide libraries in nanomolar scale” (iScience, 2020)

Assays:
gephE = test: µSPOT peptide microarray binding assay with recombinant gephE
native geph = test: µSPOT peptide microarray binding assay with native geph from mouse brain lysate
FL-geph = test: µSPOT peptide microarray binding assay with full-length geph
[1] = µSPOT peptide microarray, GlyRβ full positional scan, recombinant gephE, intensity normalised to wild-type sequence DLRSNDFSIVGSLPR (=1)
[2] = µSPOT peptide microarray, GlyRβ full positional scan, native geph from mouse brain lysate, intensity normalised to wild-type sequence DLRSNDFSIVGSLPR (=1)
[3] = µSPOT peptide microarray, GlyRβ full positional scan, intensity normalised to wild-type sequence DLRSNDFSIVGSLPR (=1)
[4] = µSPOT full positional scan of GlyRβ 15-mer DLRSNDFSIVGSLPR, intensity normalised to wild-type sequence (= 1)
[5] = µSPOT full positional scan of GlyRβ 15-mer DLRSNDFSIVGSLPR, native geph, intensity normalised to wild-type sequence (= 1)

Row | Sequence | gephE Binding Intensity [norm.] (gephE; [1]) | Native geph Binding Intensity [norm.] (native geph; [2]) | Fl-geph Binding Intensity [norm.] (FL-geph; [3]) | gephE Binding Intensity [norm.] (gephE; [4]) | Native geph Binding Intensity [norm.] (native geph; [5]) | Fl-geph Binding Intensity [norm.] (FL-geph; [4])
1 | DLRSNDFNIVGSLPR [GlyRβ_Full_Positional_Scan_159, GlyR β 414-428 variant S421N] | 0.72 norm. | 0.64 norm. | 1.03 norm. | – | – | –
2 | DLRSNDFPIVGSLPR [GlyRβ_Full_Positional_Scan_145, GlyR β 414-428 variant S421P] | 0.48 norm. | 0.25 norm. | 0.66 norm. | – | – | –
3 | DLRSNDFQIVGSLPR [GlyRβ_Full_Positional_Scan_160, GlyR β 414-428 variant S421Q] | 0.66 norm. | 0.47 norm. | 0.9 norm. | – | – | –
4 | DLRSNDFRIVGSLPR [GlyRβ_Full_Positional_Scan_152, GlyR β 414-428 variant S421R] | 0.8 norm. | 0.23 norm. | 0.92 norm. | – | – | –
5 | DLRSNDFSAVGSLPR [GlyRβ_Full_Positional_Scan_161, GlyR β 414-428 variant I422A] | 0.56 norm. | 0.52 norm. | 0.81 norm. | – | – | –
6 | DLRSNDFSDVGSLPR [GlyRβ_Full_Positional_Scan_170, GlyR β 414-428 variant I422D] | 0.29 norm. | 0.17 norm. | 0.29 norm. | – | – | –
7 | DLRSNDFSEVGSLPR [GlyRβ_Full_Positional_Scan_171, GlyR β 414-428 variant I422E] | 0.24 norm. | 0.13 norm. | 0.25 norm. | – | – | –
8 | DLRSNDFSFVGSLPR [GlyRβ_Full_Positional_Scan_167, GlyR β 414-428 variant I422F] | 0.51 norm. | 0.27 norm. | 0.76 norm. | – | – | –
9 | DLRSNDFSGVGSLPR [GlyRβ_Full_Positional_Scan_162, GlyR β 414-428 variant I422G] | 0.56 norm. | 0.34 norm. | 0.53 norm. | – | – | –
10 | DLRSNDFSHVGSLPR [GlyRβ_Full_Positional_Scan_173, GlyR β 414-428 variant I422H] | 0.41 norm. | 0.21 norm. | 0.55 norm. | – | – | –
11 | DLRSNDFSIAGSLPR [GlyRβ_Full_Positional_Scan_181, GlyR β 414-428 variant V423A] | 0.51 norm. | 0.47 norm. | 0.65 norm. | – | – | –
12 | DLRSNDFSIDGSLPR [GlyRβ_Full_Positional_Scan_190, GlyR β 414-428 variant V423D] | 0.46 norm. | 0.28 norm. | 0.35 norm. | – | – | –
13 | DLRSNDFSIEGSLPR [GlyRβ_Full_Positional_Scan_191, GlyR β 414-428 variant V423E] | 0.58 norm. | 0.53 norm. | 0.69 norm. | – | – | –
14 | DLRSNDFSIFGSLPR [GlyRβ_Full_Positional_Scan_187, GlyR β 414-428 variant V423F] | 0.64 norm. | 0.43 norm. | 0.7 norm. | – | – | –
15 | DLRSNDFSIGGSLPR [GlyRβ_Full_Positional_Scan_182, GlyR β 414-428 variant V423G] | 0.48 norm. | 0.27 norm. | 0.56 norm. | – | – | –
16 | DLRSNDFSIHGSLPR [GlyRβ_Full_Positional_Scan_193, GlyR β 414-428 variant V423H] | 0.32 norm. | 0.2 norm. | 0.46 norm. | – | – | –
17 | DLRSNDFSILGSLPR [GlyRβ_Full_Positional_Scan_184, GlyR β 414-428 variant V423L] | 0.39 norm. | 0.23 norm. | 0.66 norm. | – | – | –
18 | DLRSNDFSIPGSLPR [GlyRβ_Full_Positional_Scan_185, GlyR β 414-428 variant V423P] | 0.41 norm. | 0.31 norm. | 0.51 norm. | – | – | –
19 | DLRSNDFSIRGSLPR [GlyRβ_Full_Positional_Scan_192, GlyR β 414-428 variant V423R] | 0.6 norm. | 0.21 norm. | 0.73 norm. | – | – | –

Other lines, results leading:

Row | gephE Binding Intensity [norm.] (gephE; [1]) | Native geph Binding Intensity [norm.] (native geph; [2]) | Fl-geph Binding Intensity [norm.] (FL-geph; [3]) | gephE Binding Intensity [norm.] (gephE; [4]) | Native geph Binding Intensity [norm.] (native geph; [5]) | Fl-geph Binding Intensity [norm.] (FL-geph; [4]) | Sequence
20 | 0.45 norm. | 0.36 norm. | 0.67 norm. | – | – | – | DLRSNDFSICGSLPR [GlyRβ_Full_Positional_Scan_197, GlyR β 414-428 variant V423C]
21 | 0.5 norm. | 0.16 norm. | 0.63 norm. | – | – | – | DLRSNDFSIKGSLPR [GlyRβ_Full_Positional_Scan_194, GlyR β 414-428 variant V423K]
22 | 0.44 norm. | 0.38 norm. | 0.86 norm. | – | – | – | DLRSNDFSIMGSLPR [GlyRβ_Full_Positional_Scan_198, GlyR β 414-428 variant V423M]
23 | 0.4 norm. | 0.17 norm. | 0.79 norm. | – | – | – | DLRSNDFSINGSLPR [GlyRβ_Full_Positional_Scan_199, GlyR β 414-428 variant V423N]
24 | 0.7 norm. | 0.41 norm. | 1.03 norm. | – | – | – | DLRSNDFSIQGSLPR [GlyRβ_Full_Positional_Scan_200, GlyR β 414-428 variant V423Q]
25 | 0.41 norm. | 0.3 norm. | 0.64 norm. | – | – | – | DLRSNDFSISGSLPR [GlyRβ_Full_Positional_Scan_195, GlyR β 414-428 variant V423S]
26 | 0.66 norm. | 0.59 norm. | 0.97 norm. | – | – | – | DLRSNDFSITGSLPR [GlyRβ_Full_Positional_Scan_196, GlyR β 414-428 variant V423T]
27 | 0.34 norm. | 0.18 norm. | 0.56 norm. | – | – | – | DLRSNDFSIVASLPR [GlyRβ_Full_Positional_Scan_201, GlyR β 414-428 variant G424A]
28 | – | – | – | 0.43 norm. | 0.23 norm. | 0.45 norm. | DLRSNDFSIVCSLPR [GlyRβ_Full_Positional_Scan_217, GlyR β 414-428 variant G424C]
29 | 0.22 norm. | 0.15 norm. | 0.16 norm. | – | – | – | DLRSNDFSIVDSLPR [GlyRβ_Full_Positional_Scan_210, GlyR β 414-428 variant G424D]
30 | 0.23 norm. | 0.14 norm. | 0.18 norm. | – | – | – | DLRSNDFSIVESLPR [GlyRβ_Full_Positional_Scan_211, GlyR β 414-428 variant G424E]
31 | 0.43 norm. | 0.22 norm. | 0.54 norm. | – | – | – | DLRSNDFSIVFSLPR [GlyRβ_Full_Positional_Scan_207, GlyR β 414-428 variant G424F]
32 | – | – | – | 0.77 norm. | 0.99 norm. | 1.04 norm. | DLRSNDFSIVGALPR [GlyRβ_Full_Positional_Scan_221]
33 | – | – | – | 0.63 norm. | 0.48 norm. | 0.83 norm. | DLRSNDFSIVGCLPR [GlyRβ_Full_Positional_Scan_237]
